Assay results from patent US11191855B2, “1,7-diaryl-1,6-heptadiene-3,5-dione derivatives, methods for the production and use thereof” (UNIVERSITÄTSKLINIKUM REGENSBURG, priority 2015, dated 2021).

Test system: S. aureus ATCC 25923
Assay: Phototoxicity test c.2) (BlueV light source, emission maximum approx. 420 nm, CFU count)
Format: cell-based, Staphylococcus aureus
Conditions: Staphylococcus aureus, ATCC25923, light or radiation study, 5 min, irradiation 5 minutes, approx. 420 nm, 17.5 mW/cm^2, 5.3 J/cm^2, vs reference control; for log reduction at 10 µM: read-out: Effectiveness against S. aureus: Reduction in CFU in log10 at concentration of 10 μM; for log reduction at 50 µM: read-out: Effectiveness against S. aureus: Reduction in CFU in log10 at concentration of 50 μM
Method: A sample of the bacterial cell Staphylococcus. aureus (ATCC number: 25923) or Escherichia. coli (ATCC number: 25922) was removed from a cryo-freeze culture and cultured under aerobic conditions at 37° C. and 175 rpm overnight in an orbital shaker (MAXQ4000, Thermo Scientific, Dubuque, Iowa, USA). Growth was carried out in 20 mL Todd-Hewitt broth (Carl Roth, Karlsruhe, Germany) supplemented with 0.3% of yeast extract (AppliChem, Darmstadt, Germany). In a second experiment, the photosensitizers (PS) used were dissolved in Millipore water and adjusted to various concentrations. 25 μL of a bacterial suspension grown overnight ( 108/mL) was incubated with 25 μL of photosensitizer solution of the various concentrations at room temperature for 10 seconds in darkness in a 96-well plate. Next, the suspension was irradiated for 5-20 minutes. For the irradiation, the light source BlueV from […], Germany) was used, which emits light from 380 to 480 nm (emission maximum at approximately 420 nm). The applied energy density was 17.5 mW/cm^2. Each experiment was accompanied by three controls in order to exclude side effect of the irradiation/photosensitizer (PS) on the survival of the bacteria: (i) no PS, only light (=light control), (ii) no light, only PS (=dark control) and (iii) neither light nor PS (=reference control). […] All of the tests were carried out four times. […] All of the remaining PS were tested against S. aureus ATCC 25923 (FIGS. 24-33). FIGS. 21-33 show the logarithmic reduction after illumination with respect to the reference control. […] The irradiation period was 5 minutes (emission maximum at approximately 420 nm) for an applied intensity of 17.5 mW/cm^2, i.e. an applied light energy (dosage) of 5.3 J/cm^2. The average reference control (arithmetic mean with standard deviation) (no light, no PS) was 3.9×10^8/mL. The logarithmic reduction after illumination is shown with respect to the reference control.

## COc1cc(/C=C/C(=O)CC(=O)/C=C/c2ccc(OCCN)c(OC)c2)ccc1OCCN.Cl.Cl [Curcumin 01a hydrochloride]
  log reduction at 10 µM: > 3
  log reduction at 50 µM: > 5

## Cl.Cl.Cl.Cl.NCCOc1ccc(/C=C/C(=O)CC(=O)/C=C/c2ccc(OCCN)c(OCCN)c2)cc1OCCN [Curcumin 03 hydrochloride]
  log reduction at 10 µM: > 4
  log reduction at 50 µM: > 5
